The results in this text go back to patent US12378521B2, “Method for enhancing production of genetically engineered autologous T cells” (AMGEN INC., priority 2020, dated 2025).

One assay relates to apheresed donor cells. The experiment in a line: Growth and viability of cells expanded in media supplemented with 2-DG. The class given is cell-based, human. On the procedure: A portion of the washed apheresed donor cells comprising 1.2E9 nucleated cells were transferred into two transfer bags under the Dilute program using Sepax C-Pro processing system with the same CS-600.1 Kit (a new kit was not used). Into one bag was added about 8 ml of Media 1 (OpTmizer™ complete media containing 300 IU/mL rhIL-2 (ThermoFisher) and 2 mM 2-Deoxy-D-glucose (2-DG) (MilliporeSigma, Burlington, MA)). Into the second bag was added about 8 ml of Media 2 (OpTmizer™ complete media containing 300 IU/mL rhIL-2 (ThermoFisher)). To each was added 7.5 ml Immunocult™ anti-CD3/CD28/[…] (25 μl/ml media with cells, Stemcell Technologies). The amount of activator was determined based on the culture volume of 300 ml that was used in the culture/activation step below. The bags were incubated for 1 hour at room temperature to allow for saturation of antibody binding.
A 2 L XURI® SP Perf Cellbag bioreactor (GE Healthcare) was connected to a XURI® Cell Expansion System W25 and 300 ml Media 1 was added and allowed to equilibrate at 37° C., 5% CO2, gas flow rate of 0.1 L/min, and a rocking rate of 6 rpm at a 6° angle. […]
On Day 1, the nucleated cells in each bag were counted and the amount of a lentiviral vector (comprising a polynucleotide encoding a TCR) corresponding to a MOI of 1 functional titer was diluted in 10 ml of Media 1 or Media 2 and placed in transfer bags. […]
On Day 2, about half the volume of the culture media in each bioreactor bag was exchanged using three 50 ml bag washouts through feed-line and waste-line. Cell counts were taken daily and viable cell density (VCD), viability, dissolved oxygen, metabolites were determined as described above. Cell phenotypes were determined for all samples tested. […]
Total viable cell density, viability, glucose and lactate measurements were taken each day. Phenotyping was determined on Days 3, 5 and 7. […]
Total viable cell density, viability, glucose and lactate measurements were taken each day. Phenotyping was determined on Days 9 and 14.

Assay [1] deals with T cells. The experiment in a line: Transgene expression of cells expanded in media with 2-DG. Type of assay: cell-based, human. As to the method:
On Day 1, the nucleated cells in each bag were counted and the amount of a lentiviral vector (comprising a polynucleotide encoding a TCR) corresponding to a MOI of 1 functional titer was diluted in 10 ml of Media 1 or Media 2 and placed in transfer bags. The transfer bags were sterile welded on XURI® Cellbag feed-lines and the lentivirus was then transferred into each of the bioreactors via gravity flow. The cells were incubated at 37° C., 5% CO2, gas flow rate of 0.1 L/min, and a rocking rate of 2 rpm at a 2° angle, for 20-24 hours.
In contrast, transgene expression of T cell in non-2-DG media decreased to 44.4% at high cell density ([…]).

For assay [2], the system named is T cells. The experiment in a line: CD25 expression by cells expanded in media with 2-DG. Type of assay: cell-based, human. The text has this: Even through CD25 expression by T cells in both conditions saturated at ±80%. T cells in 2-DG media retained CD25 better at Days[…] and 9 than the cells in the non-2-DG media. This may be due to the higher transgene expression and T cell yield for T cells generated in the 2-DG media.

The subject of another assay is glycolysis. The assay can be described thus: Glucose and lactate concentrations in culture (Cedex Bio Analyzer). Type of assay: cell-based, human. As to the method: Glucose and lactate were measured using Cedex Bio Analyzer (Roche, Indianapolis, IN). […] In addition, the effect of 2-DG was reversible as restoration of glucose (A) and lactate (B) levels was found after removal of 2-DG from the media from Day 7 to 14.

In assay [3] the test system is T cells. The experiment in a line: T cell differentiation phenotyping (Tscm, Tcm, Tem) with 2-DG. Type of assay: cell-based, human. As to the method: Tscm, Tcm, Tem, and Tte subsets were analyzed by immunophenotyping based on their expression of CD45RA, CD45RO, CD95, and CCR7.
2-DG was added to culture medium between Days 0 and 7 and the feed medi was replaced with non-2-DG media (Media 1) from Days 7-14. […] The T cells continued differentiation after 2-DG was perfused out from culture media and ended at a similar level of differentiation as T cells in non-2-DG media (Media 1).
(§1) T2 cells expressing Luciferase were pulsed with the peptide recognized by the engineered TCR or with DMSO for 4 hours and the cells were washed before setting up a co-culture assay with 20,000 total T cells at a 1:1 (E:T) ratio. (A) 48 hours later, the luciferase signal was measured using the Steady Glo® Luciferase Assay System (Promega). Specific cytotoxicity was measured relative to the no peptide T2 cells cultured with the TCR T cells. (B) IFN-γ expression was measured using the AlphaLISA® detection kit (Perkin Elmer Waltham, MA) after 24 hours of co-culture. […] In addition, 24 hour accumulated release of IFN-γ was higher for T cells in non-2-DG media cross all concentration of peptide tested. […] Culture media containing 2-DG was used throughout the entire process (10 days).

The subject of assay [4] is T cells. The assay can be described thus: Leukocyte subsets in harvested T cells by immunophenotyping. Type of assay: cell-based, human. As to conditions: at harvest, both conditions. As to the method: Analysis of human B cells (CD19), monocytes (CD14), NK cells (CD56/16), NKT cells (CD3+CD56+), and T cells (CD3+Cd56−) were performed by immunophenotyping.
The test system of assay [5] is T2 cells. The assay can be described thus: Potency assay: cytotoxicity against peptide-pulsed T2 cells expressing Luciferase. Type of assay: cell-based. Particulars: peptide 1 μM, E:T 1:1, 48 hours. On the procedure:
as §1

In assay [6] the test system is T2 cells. The experiment in a line: IFN-γ expression after co-culture with T2 cells (AlphaLISA). Particulars: 24 hours co-culture, all peptide concentrations tested. The class given is cell-based. As to the method:
as §1
Background: In Alpha technology, singlet oxygen from a donor bead excites a nearby acceptor bead.

In turn, `O=CC[C@@H](O)[C@H](O)[C@H](O)CO` [2-DG, 2-deoxy-D-glucose] registered a T cells yielded with apheresed donor cells (2 mM 2-DG media, 14 days, without 2-DG 25 billion) of 35 billion T cells. Moreover, the “Viability compared with non-2-DG media” value in the assay on apheresed donor cells (Day 4 to Day 10) is listed as “slightly higher viability”. In addition, the Overall viability entry with apheresed donor cells (both media conditions) was “above 70%”. Moreover, in the assay with T cells [1] (2-DG media, non-2-DG media 54%), the “Transgene expression by T cells” value was 56%. In addition, the “Transgene expression at high cell density” value in the assay with T cells [1] (cell density 35 billion cells/ml, non-2-DG media 44.4% at 25 billion cells/ml) was determined as 50.4%. Further, the “CD25 expression in response to activation” value in the assay with T cells [2] (2-DG media, non-2-DG media 46%) is 32%. Further, in the assay on T cells [2] (both conditions), the “CD25 expression at saturation” value is reported as ~80%. In addition, in the assay on glycolysis (2-DG media (Media 1)), the “Glucose concentration in spent media compared to non-2-DG condition” value is “higher glucose concentration” and the “Lactate concentration in spent media compared to non-2-DG condition” value was “higher lactate concentration”. In the assay with glycolysis (2-DG removed from media Day 7 to 14), the “Effect on glucose and lactate levels after removal of 2-DG” value is “reversible”. Moreover, in the assay on T cells [3] (2-DG throughout entire process (10 days), non-2-DG media 43%), the “collected Tscm and Tcm subsets” value stood at 59%. Also, the Tscm subset in the assay on T cells [3] (Day 5, non-2-DG media 14%) is given as 26%. Moreover, the “combined Tcm and Tscm” value in the assay on T cells [3] (Day 7, non-2-DG media 56%) stood at 86%. Besides, in the assay on T cells [4], the “CD3+ cell purity” value is “above 98%”. Moreover, the “T2 cell lysis versus T cells from non-2-DG media” value in the assay on T2 cells [5] is recorded as “No significant difference”. Further, the “24 hour accumulated release of IFN-γ versus non-2-DG media” value in the assay with T2 cells [6] is “lower level of IFN-γ”.
